Data published in ChEMBL document CHEMBL4270514, “Design, synthesis and biological evaluation of novel xanthine oxidase inhibitors bearing a 2-arylbenzo[b]furan scaffold” (Eur J Med Chem, 2018).
pIC50, pKi: −log10 of the molar value. Calls of active or inactive are those of the source. The calls are words filed in the database; no cut-off is given here.

How the values were obtained:
[1] = Cytotoxicity against mouse RAW264.7 cells assessed as effect on cell viability at 1 to 10 uM after 24 hrs by MTT assay relative to control; format: cell-based; conditions: read-out: Activity
[2] = Antioxidant activity assessed as DPPH radical scavenging activity after 30 mins by spectrophotometric analysis; format: functional
[3] = target: T1, Xanthine dehydrogenase/oxidase (Bos taurus, UniProt P80457); experiment: Inhibition of bovine xanthine oxidase using xanthine as substrate preincubated for 3 mins followed by substrate addition and measured for every 15 secs for 7 mins by spectrophotometric analysis
T1 sequence (P80457 whole entry): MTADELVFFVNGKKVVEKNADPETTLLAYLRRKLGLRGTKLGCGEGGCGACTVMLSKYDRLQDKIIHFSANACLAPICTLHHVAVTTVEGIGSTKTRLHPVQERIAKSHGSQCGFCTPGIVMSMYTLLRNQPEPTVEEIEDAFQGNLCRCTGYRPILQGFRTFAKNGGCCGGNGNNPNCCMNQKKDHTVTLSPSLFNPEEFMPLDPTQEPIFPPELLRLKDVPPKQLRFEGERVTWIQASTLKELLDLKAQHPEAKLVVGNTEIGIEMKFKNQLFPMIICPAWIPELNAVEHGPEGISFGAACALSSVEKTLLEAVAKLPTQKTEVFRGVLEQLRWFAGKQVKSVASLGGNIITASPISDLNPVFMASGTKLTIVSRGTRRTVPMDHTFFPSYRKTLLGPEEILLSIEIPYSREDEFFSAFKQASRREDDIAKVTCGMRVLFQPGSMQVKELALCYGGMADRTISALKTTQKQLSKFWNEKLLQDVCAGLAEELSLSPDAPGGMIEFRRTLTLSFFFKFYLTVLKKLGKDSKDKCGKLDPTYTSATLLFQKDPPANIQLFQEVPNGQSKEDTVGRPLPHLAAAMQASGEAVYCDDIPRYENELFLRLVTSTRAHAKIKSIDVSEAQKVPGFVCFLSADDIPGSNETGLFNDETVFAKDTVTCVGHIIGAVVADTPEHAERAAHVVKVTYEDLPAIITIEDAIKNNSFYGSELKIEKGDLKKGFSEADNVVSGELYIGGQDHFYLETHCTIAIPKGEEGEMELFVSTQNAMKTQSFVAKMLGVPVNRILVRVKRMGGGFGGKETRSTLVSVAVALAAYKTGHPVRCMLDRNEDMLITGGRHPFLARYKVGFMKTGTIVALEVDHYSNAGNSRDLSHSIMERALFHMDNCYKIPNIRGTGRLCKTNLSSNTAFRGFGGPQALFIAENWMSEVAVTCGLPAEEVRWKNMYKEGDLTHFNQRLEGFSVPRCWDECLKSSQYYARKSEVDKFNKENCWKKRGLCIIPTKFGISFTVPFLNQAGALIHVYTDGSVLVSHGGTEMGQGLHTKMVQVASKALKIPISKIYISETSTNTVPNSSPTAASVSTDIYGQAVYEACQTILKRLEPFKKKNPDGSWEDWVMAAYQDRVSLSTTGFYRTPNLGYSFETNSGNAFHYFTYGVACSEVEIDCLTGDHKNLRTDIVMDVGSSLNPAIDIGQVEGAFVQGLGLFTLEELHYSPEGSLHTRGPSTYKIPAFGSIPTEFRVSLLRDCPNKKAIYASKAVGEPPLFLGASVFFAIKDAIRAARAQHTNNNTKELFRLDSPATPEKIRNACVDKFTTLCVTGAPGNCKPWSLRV

RAW264.7 [4] = experiment: Inhibition of LPS-induced ROS generation in mouse RAW264.7 cells at 1 to 10 uM after 24 hrs by H2DCFH staining-based fluorescence assay; format: functional, cell-based
RAW264.7 [5] = experiment: Inhibition of LPS-induced ROS generation in mouse RAW264.7 cells after 24 hrs by H2DCFH staining-based fluorescence assay; format: functional, cell-based
RAW264.7 [6] = experiment: Inhibition of LPS-induced ROS generation in mouse RAW264.7 cells at 10 uM after 24 hrs by H2DCFH staining-based fluorescence assay; format: functional, cell-based
[7] = target: T1, Xanthine dehydrogenase/oxidase; experiment: Competitive inhibition of bovine xanthine oxidase using xanthine as substrate preincubated for 3 mins followed by substrate addition by Lineweaver-Burk plot analysis
[8] = target: T1, Xanthine dehydrogenase/oxidase; experiment: Uncompetitive inhibition of bovine xanthine oxidase using xanthine as substrate preincubated for 3 mins followed by substrate addition by Lineweaver-Burk plot analysis
Mus musculus [9] = experiment: Hypouricemic effect in iv dosed ICR mouse model of potassium oxonate-induced acute hyperuricemia assessed as reduction in serum uric acids level measured after 1 hr post dose; format: functional, organism-based
Mus musculus [10] = experiment: Hypouricemic effect in ICR mouse model of potassium oxonate-induced acute hyperuricemia assessed as reduction in serum uric acid levels at 10 mg/kg, iv measured at 1 hr post dose; format: functional, organism-based

With `C=CCNC(=O)CCc1ccc(O)c2oc(-c3ccc(O)c(O)c3)cc12` the viability at 24 h, up to 10 µM [1] was greater than 85%, the pIC50 [2] was 4.68 to 5.18 and the pIC50 [3] was 4.33.
In the case of `O=C(/C=C/c1ccc(O)c2oc(-c3ccc(O)c(O)c3)cc12)Nc1ccc(O)cc1`, the viability at 24 h, 10 µM [1] was greater than 85%, the inhibition (RAW264.7 [4]) was “inactive” and the pIC50 [2] was 4.68 to 5.18. The pIC50 [3] was 4.96.
In the case of `O=C(/C=C/c1ccc(O)c2oc(-c3ccc(O)c(O)c3)cc12)Nc1ccccc1`, the viability at 24 h, up to 10 µM [1] was greater than 85%, the inhibition (RAW264.7 [4]) was “inactive” and the pIC50 [2] was 4.68 to 5.18. For the same compound, the pIC50 [3] was 4.75.
For `COc1ccc(NC(=O)/C=C/c2ccc(O)c3oc(-c4ccc(O)c(O)c4)cc23)cc1`, the viability at 24 h, up to 10 µM [1] was greater than 85%, the pIC50 [2] was 4.68 to 5.18 and the pIC50 [3] was 4.37. The inhibition (RAW264.7 [5]) was “Dose-dependent effect”.
`O=C(/C=C/c1ccc(O)c2oc(-c3ccc(O)c(O)c3)cc12)NCc1ccccc1` showed a viability at 24 h, up to 10 µM [1] greater than 85%, a pIC50 [2] of 4.68 to 5.18 and a pIC50 [3] of 4.81. For the same compound, the inhibition (RAW264.7 [6]) was “Active”.
With `C=CCNC(=O)/C=C/c1ccc(O)c2oc(-c3ccc(O)c(O)c3)cc12` the viability at 24 h, up to 10 µM [1] was greater than 85%, the inhibition (RAW264.7 [4]) was “inactive” and the pIC50 [2] was 4.68 to 5.18. It also gave a pIC50 [3] of 4.74.
Work on `COC(=O)/C=C/c1ccc(O)c2oc(-c3ccc(O)c(O)c3)cc12` yielded a viability at 24 h, up to 10 µM [1] greater than 85%, a pIC50 [2] of 4.68 to 5.18 and a pIC50 [3] of 5.18. For the same compound, the inhibition (RAW264.7 [5]) was “Dose-dependent effect”.
For `O=C(/C=C/c1ccc(O)c2oc(-c3ccc(O)c(O)c3)cc12)Nc1ccc(F)cc1`, the viability at 24 h, up to 10 µM [1] was greater than 85%, the pIC50 [2] was 4.68 to 5.18 and the pIC50 [3] was 4.08. For the same compound, the inhibition (RAW264.7 [5]) was “Dose-dependent effect”.
Compound `O=C(/C=C/c1ccc(O)c2oc(-c3ccc(O)c(O)c3)cc12)N1CCCCC1` has a viability at 24 h, up to 10 µM [1] greater than 85%, a pIC50 [2] of 4.68 to 5.18 and a pIC50 [3] of 4.67. For the same compound, the inhibition (RAW264.7 [5]) was “Dose-dependent effect”.
For `CCOC(=O)/C=C/c1ccc(O)c2oc(-c3ccc(O)c(O)c3)cc12`, the viability at 24 h, up to 10 µM [1] was greater than 85%, the pIC50 [2] was 4.68 to 5.18 and the pIC50 [3] was 4.81. For the same compound, the inhibition (RAW264.7 [5]) was “Dose-dependent effect”.
With `CNC(=O)/C=C/c1ccc(O)c2oc(-c3ccc(O)c(O)c3)cc12` the viability at 24 h, up to 10 µM [1] was greater than 85%, the pKi [7] was 5.45 and the pKi [8] was 4.88. The pIC50 [2] was 4.68 to 5.18, the Activity (Mus musculus [9]) was “Dose-dependent effect” and the pIC50 [3] was 5.35. For the same compound, the inhibition (RAW264.7 [5]) was “Dose-dependent effect”.
With `O=C(/C=C/c1ccc(O)c2oc(-c3ccc(O)c(O)c3)cc12)N1CCOCC1` the viability at 24 h, up to 10 µM [1] was greater than 85%, the inhibition (RAW264.7 [4]) was “inactive” and the pIC50 [2] was 4.68 to 5.18. For the same compound, the pIC50 [3] was less than 4.00.
For `O=C(CCc1ccc(O)c2oc(-c3ccc(O)c(O)c3)cc12)N1CCOCC1`, the viability at 24 h, up to 10 µM [1] was greater than 85%, the inhibition (RAW264.7 [4]) was “inactive” and the pIC50 [2] was 4.68 to 5.18. For the same compound, the pIC50 [3] was less than 4.00.
With `O=C(O)CCc1ccc(O)c2oc(-c3ccc(O)c(O)c3)cc12` the viability at 24 h, up to 10 µM [1] was greater than 85%, the inhibition (RAW264.7 [4]) was “inactive” and the pIC50 [2] was 4.68 to 5.18. The pIC50 [3] was 5.01.
With `O=C(O)/C=C/c1ccc(O)c2oc(-c3ccc(O)c(O)c3)cc12` [TOURNEFOLIC ACID A] the viability at 24 h, up to 10 µM [1] was greater than 85%, the pIC50 [3] was 4.79 and the inhibition (RAW264.7 [5]) was “Dose-dependent effect”.
In the case of `O=C(/C=C/c1ccc(O)c2oc(-c3ccc(O)c(O)c3)cc12)O[C@H](Cc1ccc(O)c(O)c1)C(=O)O`, the viability at 24 h, up to 10 µM [1] was greater than 85% and the Activity (Mus musculus [9]) was “Dose-dependent effect”.
Work on `CCCOC(=O)/C=C/c1ccc(O)c2oc(-c3ccc(O)c(O)c3)cc12` yielded a viability at 24 h, up to 10 µM [1] greater than 85%, a pIC50 [2] of 4.68 to 5.18 and a pIC50 [3] of 4.71. For the same compound, the inhibition (RAW264.7 [6]) was “Active”.
`O=C(/C=C/c1ccc(O)c2oc(-c3ccc(O)c(O)c3)cc12)Nc1ccc(Br)cc1` showed a viability at 24 h, up to 10 µM [1] greater than 85%, a pIC50 [2] of 4.68 to 5.18 and a pIC50 [3] of less than 4.00. The inhibition (RAW264.7 [5]) was “Dose-dependent effect”.
Compound `CC(C)(C)NC(=O)/C=C/c1ccc(O)c2oc(-c3ccc(O)c(O)c3)cc12` has a viability at 24 h, up to 10 µM [1] greater than 85%, a pIC50 [2] of 4.68 to 5.18 and a pIC50 [3] of 4.35. The inhibition (RAW264.7 [5]) was “Dose-dependent effect”.
For `CC(C)NC(=O)/C=C/c1ccc(O)c2oc(-c3ccc(O)c(O)c3)cc12`, the viability at 24 h, up to 10 µM [1] was greater than 85%, the pIC50 [2] was 4.68 to 5.18 and the pIC50 [3] was 4.86. The inhibition (RAW264.7 [5]) was “Dose-dependent effect”.
In the case of `O=C(/C=C/c1ccc(O)c2oc(-c3ccc(O)c(O)c3)cc12)Nc1ccc(Cl)cc1`, the viability at 24 h, up to 10 µM [1] was greater than 85%, the pIC50 [2] was 4.68 to 5.18 and the pIC50 [3] was less than 4.00. The inhibition (RAW264.7 [5]) was “Dose-dependent effect”.
In the case of `O=C(CCc1ccc(O)c2oc(-c3ccc(O)c(O)c3)cc12)Nc1ccc(O)cc1`, the viability at 24 h, up to 10 µM [1] was greater than 85%, the inhibition (RAW264.7 [4]) was “inactive” and the pIC50 [2] was 4.68 to 5.18. It also gave a pIC50 [3] of 4.41.
With `CC(C)OC(=O)/C=C/c1ccc(O)c2oc(-c3ccc(O)c(O)c3)cc12` the viability at 24 h, up to 10 µM [1] was greater than 85%, the inhibition (RAW264.7 [4]) was “inactive” and the pIC50 [2] was 4.68 to 5.18. The pIC50 [3] was 4.62.
In the case of `Oc1ncnc2[nH]ncc12`, the Activity (Mus musculus [10]) was “Active”.
`Cc1ccc(NC(=O)/C=C/c2ccc(O)c3oc(-c4ccc(O)c(O)c4)cc23)cc1` gave a viability at 24 h, up to 10 µM [1] greater than 85%, a pIC50 [2] of 4.68 to 5.18 and a pIC50 [3] of 4.29. The inhibition (RAW264.7 [5]) was “Dose-dependent effect”.
In the case of `CNC(=O)CCc1ccc(O)c2oc(-c3ccc(O)c(O)c3)cc12`, the viability at 24 h, up to 10 µM [1] was greater than 85%, the inhibition (RAW264.7 [4]) was “inactive” and the pIC50 [2] was 4.68 to 5.18. For the same compound, the pIC50 [3] was 4.94.
With `CCNC(=O)/C=C/c1ccc(O)c2oc(-c3ccc(O)c(O)c3)cc12` the viability at 24 h, 10 µM [1] was greater than 85%, the inhibition (RAW264.7 [4]) was “inactive” and the pIC50 [2] was 4.68 to 5.18. For the same compound, the pIC50 [3] was 4.87.
